The text below walks through data of patent US11883404B2, “Preparation and composition for treatment of malignant tumors” (TAIHO PHARMACEUTICAL CO., LTD., priority 2016, dated 2024).

SMILES strings stand for the structures. pIC50: −log10 of the molar value. Structures can show the parent of a compound that is named as a salt. Where two headings read alike, the source gives them in different places.

The test system of data set [1] is human endometrial cancer line AN3CA. The following applies: for T/C (%): Day 11.
Data set [2] has the same test system. Description: Apoptosis induction, CellEvent Caspase-3/7 Green Detection, Compound 1 and Compound 2 (Example 14). The data set is classed as cell-based. The following applies: Compound 1 100 nM, Compound 2 100 nM, 24 hours. The protocol:
(§1) The presence or absence of induction of apoptosis by concomitant use was observed using CellEvent™ Caspase-3/7 Green Detection Reagent (Invitrogen Corp.). […] The concentration of Compound 2 was set to 100 nM. These medicines used alone (DMSO was added as a control) or concomitantly were comparatively studied. […] Apoptosis was detected by adding 6 μL of CellEvent™ Caspase-3/7 Green Detection Reagent (Invitrogen Corp.) solution per well to the cells, incubating the cells at 37° C. for 30 minutes, and then measuring cell images in the bright field and fluorescence signals, under a fluorescence microscope. The observed fluorescence signals indicate the induction of Caspase 3/7, and the amplitude of the signals represents the presence or absence of induction of apoptosis-like cell death.

Data set [3] shares this test system. Description: Antitumor effect of Compound 1 and Compound 2 on subcutaneously implanted AN3CA tumor in nude mouse (Example 16). It is filed as in vivo, BALB/cAJcl-nu/nu mice. The following applies: alone, Day 15. The protocol: The day at which the grouping was carried out was defined as Day 0. TV(mm^3)=(Major axis×Minor axis^2)/2(units for the major axis and the minor axis were mm).
The dose of Compound 2 was set in consideration of well tolerated dose for nude mice, etc.
(§2) RTV was calculated according to the expression given below from TV values on the day of measurement and on the day of grouping. […] RTV=(TV on the day of measurement)/(TV on the day of grouping) T/C (%)=(Average RTV in each medicine administration group on the day of assessment)/(Average RTV in the control group on the day of assessment)×100

Data set [4] concerns human small cell lung cancer cell line DMS 114. Kind of data set: Cell survival rate assay (CellTiter-Glo 2.0), IC50 and combination index of Compound 1 and Compound 2 (Example 15). It is filed as cell-based. The settings on record: each medicine alone, 72 hours. Background: In ATP-based viability assays light output follows the ATP content of the culture.
Description: A human small cell lung cancer cell line DMS 114 was cultured using a Waymouth's medium containing 10% fetal bovine serum. The cells were maintained at 37° C. under 5% CO2 and subcultured at a ratio of 1:5 to 1:20 by 1 to 2 passages per week.
Cell survival rate was measured using CellTiter-Glo 2.0 (produced by Promega Corp.). The cells were collected by an ordinary method, then suspended in a Waymouth's medium containing 10% fetal bovine serum, and seeded in a 96-well plate. The number of cells seeded per well was set to 2000 cells/50 μL. […] In addition to groups of each medicine alone, groups of both the medicines simultaneously added were prepared in parallel. […] Cell survival rates were calculated by adding 50 μL of CellTiter-Glo 2.0 solution to each well, incubating the cells at room temperature for 15 minutes, and then measuring the chemiluminescence intensity of each well using a plate reader (FlexStation 3). The cell survival rates in medicine addition were calculated as a ratio vs. the control group (100%) according to the following equation: Cell survival rate (%)=(Chemiluminescence intensity at the time of medicine addition)/(Chemiluminescence intensity of the control group)×100
Also, Fa (fraction of affect) values were calculated by subtracting a 1/100 value of the cell survival rate from 1. […]
For data set [5], the system named is human gastric cancer line SNU-16. Description: Antitumor effect of Compound 1 and paclitaxel on subcutaneously implanted SNU-16 tumor in nude mouse (Example 2). The following applies: for T/C (%): Day 15.
The test system of a further data set is phosphorylated AKT. Kind of data set: Western blot, intracellular phosphorylation of AKT in AN3CA (Example 11). The data set is classed as cell-based, human. The settings on record: Compound 1 10 and 100 nM, MK2206 dihydrochloride 5 μM. As for the experimental part:
The intracellular phosphorylation levels of ERK, AKT, mTOR and S6 were detected by Western blot method. […] Likewise, MK2206 dihydrochloride was added at a final concentration of 5 μM (in terms of a free form), and everolimus was added at a final concentration of 3 nM. Each medicine alone and each combination were studied. DMSO was added as a control at a final concentration of 0.2%. […] The amounts of phosphorylated AKT, phosphorylated ERK, phosphorylated mTOR, phosphorylated S6 and GAPDH were detected using Western blot according to an ordinary method.
Background: Immunoblotting shows a protein as a band on a membrane.

In data set [6] the test system is human endometrial cancer line AN3CA. Kind of data set: Apoptosis induction, CellEvent Caspase-3/7 Green Detection, Compound 1 and MK2206 (Example 9). The following applies: Compound 1 10 nM, MK2206 dihydrochloride 300 nM (free form), 24 hours. It is filed as cell-based. The protocol:
as §1, with “MK2206 dihydrochloride” for “Compound 2”, “300 nM (in terms of a free form).” for “100 nM.”, “1” for “6”

In data set [7] the test system is Human lung cancer line HCC4006. The settings on record: 100 ng/mL FGF7, 72 hours.
Description: (§3) Cell survival rates were measured using CellTiter-Glo. The cells were recovered by an ordinary method, suspended in the above medium containing 10% fetal bovine serum, and seeded in a 96-well plate. The number of cells seeded per well was set to 2000 cells/70 μL. […] In order to study effects on the activated FGF/FGFR pathway in the cells, a ligand FGF2 or FGF7 was added to the cells and compared with non-addition. […] DMSO was added to a control well, and 10 ng/mL FGF2 or 100 ng/mL FGF7 was added to the medium.
(§4) The cells were incubated at 37° C. for 72 hours under 5% CO2. Then, 100 μL of CellTiter-Glo solution was added to each well, and the cells were incubated at room temperature for 10 minutes, followed by the measurement of chemiluminescence intensity using a plate reader (ARVO). Growth inhibitory effects relative to the vehicle group were calculated from the obtained data.
The test system of data set [8] is Human lung cancer line NCI-H1650. The settings on record: 100 ng/mL FGF7, 72 hours.
Description: as §3, §4
The subject of data set [9] is human endometrial cancer line AN3CA. Description: Antitumor effect of Compound 1 and gemcitabine on subcutaneously implanted AN3CA tumor in nude mouse (Example 4). It is filed as in vivo, BALB/cAJcl-nu/nu mice. The following applies: Day 15. As for the experimental part:
Gemcitabine was administered at 100 mg/kg/day from the tail vein at Day 1 and Day 8.

For data set [10] the test system is unchanged. The following applies: alone, Day 15.
Description: An engrafted tumor was removed from the mice, chopped into fragments of 2 mm square, and then subcutaneously implanted to 6-week-old female BALB/cAJcl-nu/nu mice.
Everolimus was orally administered each day at 2 mg/kg/day for 14 days.
In data set [11] the test system is human gastric cancer line SNU-16. It is filed as in vivo. The settings on record: alone. As for the experimental part:
The day at which the grouping was carried out was defined as Day 0. TV (mm^3)=(Major axis×Minor axis^2)/2(units for the major axis and the minor axis were mm).
as §2

In another data set the test system is phosphorylated mTOR. Kind of data set: Western blot, intracellular phosphorylation of mTOR in AN3CA (Example 11). The following applies: everolimus 3 nM alone. The data set is classed as cell-based, human. As for the experimental part: The intracellular phosphorylation levels of ERK, AKT, mTOR and S6 were detected by Western blot method. […] Likewise, MK2206 dihydrochloride was added at a final concentration of 5 μM (in terms of a free form), and everolimus was added at a final concentration of 3 nM. Each medicine alone and each combination were studied. DMSO was added as a control at a final concentration of 0.2%.
Then, cell lysates were prepared using RIPA Buffer [composition: 50 mM Tris-HCl (pH 8.0), 150 mM NaCl, 5 mM EDTA, 1% (w/w) Nonidet P-40, 0.1% (w/w) sodium deoxycholate, and 0.1% (w/w) SDS]. The amounts of phosphorylated AKT, phosphorylated ERK, phosphorylated mTOR, phosphorylated S6 and GAPDH were detected using Western blot according to an ordinary method.

Setting [12] is: Compound 1 15 mg/kg/day orally once a day for 14 days, alone.

As for `N.N.[Cl][Pt][Cl]` [cisplatin], the “T/C (%)” value in data set [1] (cisplatin 7 mg/kg/day tail vein at Day 1, alone) is recorded as 53.0%. Besides, in data set [1] (mouse, in vivo), the “body weight change of the mice” value is given as “transient decrease in body weight”.

As a reminder, the pIC50 is the negative decadic logarithm of the IC50, by convention in mol/L. Take `CC1(O)CC(N)(c2ccc(-c3nc4n(c3-c3ccccc3)COc3ccncc3-4)cc2)C1` (stereo not drawn) [Compound 2, trans-3-amino-1-methyl-3-(4-(3-phenyl-5H-imidazo[1,2-c]pyrido[3,4-e][1,3]oxazin-2-yl)phenyl)cyclobutanol]: the “induction of cell death (Caspase 3/7 fluorescence signals)” value in data set [2] is recorded as “hardly found”. Moreover, the “T/C (%)” value in [3] (Compound 2 4 mg/kg/day orally once a day for 14 days) is 58.6%; in data set [3] (Compound 2 8 mg/kg/day orally once a day for 14 days), 55.4%. Moreover, the negative logarithm of the IC50 (pIC50) in [4] is 5.31.

`CC(=O)O[C@H]1C(=O)[C@@]2(C)[C@H]([C@H](OC(=O)c3ccccc3)[C@]3(O)C[C@H](OC(=O)[C@H](O)[C@@H](NC(=O)c4ccccc4)c4ccccc4)C(C)=C1C3(C)C)[C@]1(OC(C)=O)CO[C@@H]1C[C@@H]2O` [paclitaxel, reference compound]: the “body weight change of the mice” value in data set [5] (paclitaxel 60 mg/kg, concomitant use group vs each medicine group) was “transient decrease in body weight”. Also, in data set [5] (paclitaxel single dose 60 mg/kg/day tail vein at Day 1, alone), the “T/C (%)” value turned out to be 12.9%.

`NC1(c2ccc(-c3nc4ccn5c(=O)[nH]nc5c4cc3-c3ccccc3)cc2)CCC1` [MK2206 dihydrochloride, 8-[4-(1-aminocyclobutyl)phenyl]-9-phenyl-1,2,4-triazolo[3,4-f][1,6]naphthyridin-3(2H)-one]: the AKT phosphorylation result with phosphorylated AKT is reported as “inhibited”. Moreover, the “induction of cell death (Caspase 3/7 fluorescence signals)” value in data set [6] is reported as “hardly found”.

For `COc1cc2ncnc(Nc3ccc(F)c(Cl)c3)c2cc1OCCCN1CCOCC1` [gefitinib], the “drug effect of gefitinib on addition of the FGFR ligand FGF7” value in [7] and in data set [8] was “attenuated” in each case.

As to `C=CC(=O)N1CC[C@H](n2nc(C#Cc3cc(OC)cc(OC)c3)c3c(N)ncnc32)C1` [Compound 1, (S)-1-(3-(4-Amino-3-((3,5-dimethoxyphenyl)ethynyl)-1H-pyrazolo[3,4-d]pyrimidin-1-yl)pyrrolidin-1-yl)prop-2-en-1-one], the “T/C (%)” value in data set [9] (Compound 1 15 mg/kg/day orally each day for 14 days, alone) is 42.1%; in data set [1] (setting [12]) it was 46.0%; in data set [3] (Compound 1 15 mg/kg/day orally once a day for 14 days) it was 22.1%; in data set [10] (Compound 1 15 mg/kg/day orally each day for 14 days), 33.3%; in [10] (Compound 1 50 mg/kg/day orally each day for 14 days), 12.6%; in [11] (Compound 1 5 mg/kg/day orally once a day for 14 days, day of assessment (Day 15)), 83.6%. Further, the “T/C (%)” value stood at 69.0% in [11] (Compound 1 15 mg/kg/day orally once a day for 14 days, Day 15); 83.6% in data set [5] (Compound 1 5 mg/kg/day orally once a day for 14 days, alone); 69.0% in data set [5] (setting [12]).

On to `Nc1ccn([C@@H]2O[C@H](CO)[C@@H](O)C2(F)F)c(=O)n1` [gemcitabine, reference compound], for which the “T/C (%)” value in [9] (gemcitabine 100 mg/kg/day tail vein at Day 1 and Day 8, alone) is 75.5%.

Turning to `CO[C@H]1C[C@@H]2CC[C@@H](C)[C@@](O)(O2)C(=O)C(=O)N2CCCC[C@H]2C(=O)O[C@H]([C@H](C)C[C@@H]2CC[C@@H](OCCO)[C@H](OC)C2)CC(=O)[C@H](C)/C=C(\C)[C@@H](O)[C@@H](OC)C(=O)[C@H](C)C[C@H](C)/C=C/C=C/C=C/1C` [everolimus, reference compound], the “T/C (%)” value in data set [10] (everolimus 2 mg/kg/day orally each day for 14 days) amounted to 27.1%. For the same molecule, the mTOR phosphorylation entry with phosphorylated mTOR is listed as “inhibited”.
